In patent publication US11433013B2, “Peptide for preventing skin damage caused by air pollutants and for anti-aging, and use thereof” (CAREGEN CO., LTD., priority 2019, dated 2022):
No end group written: not given here.

System: CYP1A1
Assay: CYP1A1 gene expression by RT-PCR, HaCaT cells treated with pollutants
Assay type: cell-based, human
Method: In order to confirm an effect of inhibiting inflow of pollutants into the cells via another method, the cells were treated with TCDD, PM, and CSE, and expression levels of CYP1A1 and COX-2 were confirmed. When the activity of AhR is promoted by the pollutants such as TCDD, the AhR acts as a transcription factor and increases expressions of CYP1A1 and COX-2, and thus a degree of the inflow of the pollutants into the cells and whether the AhR is activated or not may be confirmed by measuring expression levels of CYP1A1 and COX-2 genes. TCDD, PM, and CSE were each used after mixing it with the peptide of the present invention and pre-reacting the mixture on a serum-free media for about 1 hour.
In order to confirm the results of the cells treated with TCDD, first, 78 passages of HaCaT cells were seeded in a 6-well plate at a cell density of 3×10^5/well and cultured for about 16 hours, and then, the culture solution was replaced with a serum-free media, and the resultant was treated with the pre-reacted mixture of TCDD and the peptide for about 2 hours. The treatment included TCDD at a concentration of about 0.1 μM and the peptide at concentrations of about 10 μM, about 50 μM, and about 100 μM, respectively. The negative control was not treated with the peptide but only treated with TCDD, and the positive control was treated with CH223191 at a concentration of about 10 μM and TCDD. The cells were reacted with the mixture for about 2 hours, and RNA was isolated from the resultant. After removing the culture solution, the plate on which the cells were cultured was treated with TRIzol (available from Thermo Fisher Scientific, USA), and a sample including RNA was obtained using a scraper. Then, the sample was treated with chloroform and centrifuged to obtain a supernatant. The supernatant was treated with isopropanol, centrifuged again, and RNA pellets at the bottom were confirmed. Next, the resultant was treated with 70% of ethanol to wash the pellets, and the pellets were sufficiently dried to isolate RNA. […]

SYSGVLFFLK [SEQ ID NO: 1, SYSGVLFFLK]
expression level of CYP1A1 (CSE about 2%, peptide about 10, 50, 100 μM, about 2 hours (FIG. 2C)): decreased as a concentration of the peptide increased
expression level of CYP1A1 (PM about 25 μg/cm^2, peptide about 10, 50, 100 μM, about 2 hours (FIG. 2B)): decreased as a concentration of the peptide increased
expression level of CYP1A1 (TCDD about 0.1 μM, peptide about 10, 50, 100 μM, about 2 hours (FIG. 2A)): decreased as a concentration of the peptide increased
